Experimental data reported in patent US10143695B2 (priority 2016, dated 2018).

What was measured:
Format in all cases: cell-based
Settings in all cases: PBD compounds, 72 h incubation
[1] = tested on: SKBR3 cells (HER2 expressing cells); test: CellTiter-Glo cell viability assay, SKBR3
Description: (§1) PBD compounds and conjugates thereof were evaluated for their antiproliferation properties in tumor cell lines in vitro using CellTiter-Glo® (Promega Corp). Cells were plated in black walled 96-well plate and allowed to adhere overnight at 37° C. in a humidified atmosphere of 5% CO2. BT474, SKBR3, NCI-N87 cells (HER2 expressing cells), JIMT1 cells (HER2 medium expression level cells) and MCF7 cells (HER2 low expressing levels cells) and were plated at a density of 5,000 cells per well. The next day the medium was replaced with 50 μL fresh medium and 50 μL of 2× stocks of PBD compounds or antibody-PBD conjugate were added to appropriate wells, mixed and incubated for 72 h. CellTiter-Glo® reagent was added to the wells at room temperature and the luminescent signal was measured after 10 min using a SpectraMax M5 plate reader (Molecular Devices). Dose response curves were generated using SoftMax Pro software. IC50 values were determined from four-parameter curve fitting.

[2] = tested on: BT474 cells (HER2 expressing cells); test: CellTiter-Glo cell viability assay, BT474
Description: as §1

[3] = tested on: NCI-N87 cells (HER2 expressing cells); test: CellTiter-Glo cell viability assay, NCI-N87
Description: as §1

[4] = tested on: MCF7 cells (HER2 low expressing levels cells); test: CellTiter-Glo cell viability assay, MCF7
Description: as §1

[5] = tested on: JIMT1 cells (HER2 medium expression level cells); test: CellTiter-Glo cell viability assay, JIMT1
Description: as §1

| SMILES | IC50 ([1]; Homo sapiens, SK-BR-3) [nM] | IC50 ([2]; Homo sapiens, BT-474) [nM] | IC50 ([3]; Homo sapiens, NCI-N87) [nM] | IC50 ([4]; Homo sapiens, MCF7) [nM] | IC50 ([5]; Homo sapiens, JIMT-1) [nM] | IC50 [1] [nM] | IC50 [2] [nM] | IC50 [3] [nM] | IC50 [4] [nM] | IC50 [5] [nM] |
| --- | --- | --- | --- | --- | --- | --- | --- | --- | --- | --- |
| C=C1C[C@H]2C=Nc3cc(OCCCC(=O)Nc4cn(C)c(C(=O)Nc5cc(C(=O)Nc6cc(C(=O)n7ccc8c(N)cccc87)n(C)c6)n(C)c5)n4)c(OC)cc3C(=O)N2C1 [Compound 11A, (S,Z)-N-(5-(5-(4-amino-1H-indole-1-carbonyl)-1-methyl-1H-pyrrol-3-ylcarbamoyl)-1-methyl-1H-pyrrol-3-yl)-4-(4-(7-methoxy-2-methylene-5-oxo-2,3,5,11a-tetrahydro-1H-benzo[e]pyrrolo[1,2-a][1,4]diazepin-8-yloxy)butanamido)-1-methyl-1H-imidazole-2-carboxamide] | 0.67 | 4 | 1.5 | 14.8 | 11.3 |  |  |  |  |  |
| C=C1CC2C=Nc3cc(OCCCC(=O)Nc4cn(C)c(C(=O)Nc5cc(C(=O)Nc6cc(C(=O)NCCCO)n(C)c6)n(C)c5)n4)c(OC)cc3C(=O)N2C1 (stereo in doubt) [Compound 56, (S,Z)-N-(5-(5-(3-hydroxypropylcarbamoyl)-1-methyl-1H-pyrrol-3-ylcarbamoyl)-1-methyl-1H-pyrrol-3-yl)-4-(4-(7-methoxy-2-methylene-5-oxo-2,3,5,11a-tetrahydro-1H-benzo[e]pyrrolo[1,2-a][1,4]diazepin-8-yloxy)butanamido)-1-methyl-1H-imidazole-2-carboxamide] | 7.9 | 23.3 | 13.6 | 54.5 | 9 |  |  |  |  |  |
| COc1cc2c(cc1OCCCC(=O)Nc1cc(C(=O)Nc3cc(C(=O)Nc4cc(C(=O)NCCCO)n(C)c4)n(C)c3)n(C)c1)N=C[C@@H]1Cc3ccccc3N1C2=O [Compound 69] | 1.5 | 4.7 | 3 | 69 | 1.5 |  |  |  |  |  |
| C=C1C[C@H]2C=Nc3cc(OCCCC(=O)Nc4cn(C)c(C(=O)Nc5cc(C(=O)Nc6cc(C(=O)n7ncc8cc(N)ccc87)n(C)c6)n(C)c5)n4)c(OC)cc3C(=O)N2C1 [Compound 79, (S,Z)-N-(5-(5-(5-amino-1H-indazole-1-carbonyl)-1-methyl-1H-pyrrol-3-ylcarbamoyl)-1-methyl-1H-pyrrol-3-yl)-4-(4-(7-methoxy-2-methylene-5-oxo-2,3,5,11a-tetrahydro-1H-benzo[e]pyrrolo[1,2-a][1,4]diazepin-8-yloxy)butanamido)-1-methyl-1H-imidazole-2-carboxamide] | 0.09 | 0.66 | 0.31 | 2.6 | 2.1 |  |  |  |  |  |
| C=C1C[C@H]2C=Nc3cc(OCCCC(=O)Nc4cn(C)c(C(=O)Nc5cc(C(=O)Nc6cc(C(=O)n7ccc8cc(C(=O)OC)cnc87)n(C)c6)n(C)c5)n4)c(OC)cc3C(=O)N2C1 [Compound 85, (S,Z)-methyl 1-(4-(4-(4-(4-(7-methoxy-2-methylene-5-oxo-2,3,5,11a-tetrahydro-1H-benzo[e]pyrrolo[1,2-a][1,4]diazepin-8-yloxy)butanamido)-1-methyl-1H-imidazole-2-carboxamido)-1-methyl-1H-pyrrole-2-carboxamido)-1-methyl-1H-pyrrole-2-carbonyl)-1H-pyrrolo[2,3-b]pyridine-5-carboxylate] | 0.58 | 6.3 | 0.97 | 8 | 14.2 |  |  |  |  |  |
| C=C1C[C@H]2C=Nc3cc(OCCCC(=O)Nc4cn(C)c(C(=O)Nc5cc(C(=O)Nc6cc(C(=O)n7ccc8cc(OC)ccc87)n(C)c6)n(C)c5)n4)c(OC)cc3C(=O)N2C1 [Compound 7A] | 0.15 | 0.6 | 0.3 | 2.7 | 1.1 |  |  |  |  |  |
| COc1cc2c(cc1OCCCC(=O)Nc1cc(C(=O)Nc3cc(C(=O)Nc4cc(C(=O)NCCCO)n(C)c4)n(C)c3)n(C)c1)N=C[C@@H]1CCCN1C2=O [Compound 66, (S,Z)-N-(3-hydroxypropyl)-4-(4-(4-(4-(7-methoxy-5-oxo-2,3,5,11a-tetrahydro-1H-benzo[e]pyrrolo[1,2-a][1,4]diazepin-8-yloxy)butanamido)-1-methyl-1H-pyrrole-2-carboxamido)-1-methyl-1H-pyrrole-2-carboxamido)-1-methyl-1H-pyrrole-2-carboxamide] | 16 | 86 | 27 | 121 | 15 |  |  |  |  |  |
| C=C1C[C@H]2C=Nc3cc(OCCCC(=O)Nc4cn(C)c(C(=O)Nc5cc(C(=O)Nc6cc(C(=O)Nc7ccc8[nH]ccc8c7)n(C)c6)n(C)c5)n4)c(OC)cc3C(=O)N2C1 [Compound 82, (S,Z)-N-(5-(5-(1H-indol-5-ylcarbamoyl)-1-methyl-1H-pyrrol-3-ylcarbamoyl)-1-methyl-1H-pyrrol-3-yl)-4-(4-(7-methoxy-2-methylene-5-oxo-2,3,5,11a-tetrahydro-1H-benzo[e]pyrrolo[1,2-a][1,4]diazepin-8-yloxy)butanamido)-1-methyl-1H-imidazole-2-carboxamide] |  |  |  |  |  | 3.6 | 32 | 7.9 | 27 | 10.8 |
| C=C1C[C@@H]2C=Nc3cc(OCCCC(=O)Nc4cc(C(=O)Nc5cc(C(=O)Nc6cc(C(=O)NCCCO)n(C)c6)n(C)c5)n(C)c4)c(OC)cc3C(=O)N2C1 [Compound 55, (R,Z)-N-(3-hydroxypropyl)-4-(4-(4-(4-(7-methoxy-2-methylene-5-oxo-2,3,5,11a-tetrahydro-1H-benzo[e]pyrrolo[1,2-a][1,4]diazepin-8-yloxy)butanamido)-1-methyl-1H-pyrrole-2-carboxamido)-1-methyl-1H-pyrrole-2-carboxamido)-1-methyl-1H-pyrrole-2-carboxamide] | 2.5 | 7.5 | 5 | 47 | 2 |  |  |  |  |  |
| C=C1C[C@H]2C=Nc3cc(OCCCC(=O)Nc4cn(C)c(C(=O)Nc5cc(C(=O)Nc6cc(C(=O)n7ccc8cc(N)ccc87)n(C)c6)n(C)c5)n4)c(OC)cc3C(=O)N2C1 [Compound 8, (S,Z)-N-(5-((5-(5-amino-1H-indole-1-carbonyl)-1-methyl-1H-pyrrol-3-yl)carbamoyl)-1-methyl-1H-pyrrol-3-yl)-4-(4-((7-methoxy-2-methylene-5-oxo-2,3,5,11a-tetrahydro-1H-benzo[e]pyrrolo[1,2-a][1,4]diazepin-8-yl)oxy)butanamido)-1-methyl-1H-imidazole-2-carboxamide] | 0.15 | 0.84 | 0.43 | 4 | 2.2 |  |  |  |  |  |
| C=C1C[C@H]2C=Nc3cc(OCCCC(=O)Nc4cn(C)c(C(=O)Nc5cc(C(=O)N6Cc7ccc(N)cc7C6)n(C)c5)n4)c(OC)cc3C(=O)N2C1 [Compound 5A, (S,Z)-N-(5-(5-aminoisoindoline-2-carbonyl)-1-methyl-1H-pyrrol-3-yl)-4-(4-(7-methoxy-2-methylene-5-oxo-2,3,5,11a-tetrahydro-1H-benzo[e]pyrrolo[1,2-a][1,4]diazepin-8-yloxy)butanamido)-1-methyl-1H-imidazole-2-carboxamide] | 0.97 | 2.9 | 5.3 | 24.2 | 16 |  |  |  |  |  |
| C=C1C[C@H]2C=Nc3cc(OCCCC(=O)Nc4cn(C)c(C(=O)Nc5cc(C(=O)NCc6ccc(N)cc6)n(C)c5)n4)c(OC)cc3C(=O)N2C1 [Compound 3A, (S,Z)-N-(5-(4-aminobenzylcarbamoyl)-1-methyl-1H-pyrrol-3-yl)-4-(4-(7-methoxy-2-methylene-5-oxo-2,3,5,11a-tetrahydro-1H-benzo[e]pyrrolo[1,2-a][1,4]diazepin-8-yloxy)butanamido)-1-methyl-1H-imidazole-2-carboxamide] | 9 | 69 | 14 | 214 | 91 |  |  |  |  |  |
| C=C1C[C@H]2C=Nc3cc(OCCCC(=O)Nc4cn(C)c(C(=O)Nc5cc(C(=O)Nc6cc(C(=O)n7ncc8ccc(N)cc87)n(C)c6)n(C)c5)n4)c(OC)cc3C(=O)N2C1 [Compound 28, (S,Z)-N-(5-(5-(6-amino-1H-indazole-1-carbonyl)-1-methyl-1H-pyrrol-3-ylcarbamoyl)-1-methyl-1H-pyrrol-3-yl)-4-(4-(7-methoxy-2-methylene-5-oxo-2,3,5,11a-tetrahydro-1H-benzo[e]pyrrolo[1,2-a][1,4]diazepin-8-yloxy)butanamido)-1-methyl-1H-imidazole-2-carboxamide] | 0.16 | 2.9 | 1.02 | 2.6 | 0.6 |  |  |  |  |  |
| C=C1C[C@H]2C=Nc3cc(OCCCC(=O)Nc4cn(C)c(C(=O)Nc5cc(C(=O)Nc6cc(C(=O)N7CCc8cc(N)ccc87)n(C)c6)n(C)c5)n4)c(OC)cc3C(=O)N2C1 [Compound 77, (S,Z)-N-(5-(5-(5-aminoindoline-1-carbonyl)-1-methyl-1H-pyrrol-3-ylcarbamoyl)-1-methyl-1H-pyrrol-3-yl)-4-(4-(7-methoxy-2-methylene-5-oxo-2,3,5,11a-tetrahydro-1H-benzo[e]pyrrolo[1,2-a][1,4]diazepin-8-yloxy)butanamido)-1-methyl-1H-imidazole-2-carboxamide] | 1.4 | 37.1 | 6.4 | 14.9 | 8.6 |  |  |  |  |  |
